Columns and labels:
[1] = tested on: Jurkat NFκB-luciferase cells; assay: Jurkat NFκB-Luciferase Assay; type: cell-based; conditions: Homo sapiens; Jurkat NFκB-luciferase cells activated with anti-CD3 antibody (OKT3), 2.5 hrs at 37° C.; geometric mean; read-out: DGK NFKb Luciferase EC50
Outline: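 Luminescence from One-Glo Ex, read 7 min post-addition, reports NFκB activation in Jurkat luciferase reporter cells. Cells, diluted to 1 million cells/ml in 10% FBS RPMI, were dispensed onto plates holding compound and washed, pre-bound antibody.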

human DGKα = human DGKα (Homo sapiens, UniProt P23743); assay: DGKα Biochemical Activity Assay (ADP-Glo); conditions: recombinant DGKα 1 nM, 100 μM ATP, 18:1 DAG/POPS/octylglucoside micelles, 1 hour at 25° C.; geometric mean; read-out: HTBS DGKa 1X ATP KM IC50;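 further: luminescent detection of ADP produced as DGKα phosphorylates DAG to phosphatidic acid, IC50 from four-parameter nonlinear curve fit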
Sequence of human DGKα (P23743 whole entry): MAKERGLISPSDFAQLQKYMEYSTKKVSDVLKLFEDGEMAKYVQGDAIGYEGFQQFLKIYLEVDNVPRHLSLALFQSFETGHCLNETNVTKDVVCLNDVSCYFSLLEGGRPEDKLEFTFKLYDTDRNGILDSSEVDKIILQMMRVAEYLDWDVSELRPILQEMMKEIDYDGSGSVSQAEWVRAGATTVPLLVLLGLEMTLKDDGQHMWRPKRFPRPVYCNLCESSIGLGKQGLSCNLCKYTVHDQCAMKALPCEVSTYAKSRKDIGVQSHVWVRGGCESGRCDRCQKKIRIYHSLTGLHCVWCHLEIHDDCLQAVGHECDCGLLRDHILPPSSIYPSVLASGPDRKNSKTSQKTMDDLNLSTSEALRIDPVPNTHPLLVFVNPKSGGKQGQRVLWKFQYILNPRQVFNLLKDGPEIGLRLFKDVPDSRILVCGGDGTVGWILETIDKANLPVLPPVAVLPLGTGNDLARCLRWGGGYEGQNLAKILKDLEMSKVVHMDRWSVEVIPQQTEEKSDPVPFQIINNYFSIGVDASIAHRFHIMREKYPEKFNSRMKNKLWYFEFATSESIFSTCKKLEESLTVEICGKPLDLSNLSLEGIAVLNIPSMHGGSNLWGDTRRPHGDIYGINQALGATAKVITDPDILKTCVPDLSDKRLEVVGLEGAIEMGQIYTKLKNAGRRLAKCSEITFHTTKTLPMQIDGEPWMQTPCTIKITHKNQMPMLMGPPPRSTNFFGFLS
Description: Alternatively, the enzymatic activity of human DGKα was monitored in a biochemical assay in the presence or absence of compounds and using micelles containing 18:1 Diacylglycerol (DAG), 16:0-18:1 PS (POPS) and Octylglucoside as substrate. DGKα activity led to conversion of DAG and ATP to Phosphatidic Acid (PA) and ADP. Levels of ADP were monitored by bioluminescence using the ADP-Glo Kinase Assay (Promega) and were indicative of DGKα activity.
Recombinant DGKα (Carna Biosciences) in assay buffer (5 μL in 50 mM MOPS [3-(N-morpholino) propanesulfonic acid], pH 7.2; 0.0025% Triton X-100; 1 mM dithiothreitol; 5 mM MgCl2, 200 μM ATP) was added to the compound-containing plate and was incubated for 15 minutes at 25° C. […] The reaction mixture was incubated at 25° C. for 1 hour. ADP-Glo Reagent (10 μL, 10 mM Mg added) provided by the kit was added to each well and incubated at 25° C. for 40 minutes. Then, 20 μL of Kinase Detection Reagent was added and incubated at 25° C. for 40 minutes. Luciferase activity of each well was measured via luminescence on an Envision plate reader (PerkinElmer).
Least squares curve fittings were performed using a four-parameter variable slope nonlinear regression model. […] IC50 values from multiple experiments were averaged by geometric mean and the standard deviation was calculated.

| EC50 [1] [nM] | IC50 (human DGKα) [nM] | SMILES |
| --- | --- | --- |
| 0.122 | 6.22 | CC(C)(C#Cc1cncc2c1CCCN2c1nc2nncn2c2ccc(F)c(F)c12)C(F)(F)F [Example 100, 6,7-difluoro-5-(5-(4,4,4-trifluoro-3,3-dimethylbut-1-yn-1-yl)-3,4-dihydro-1,7-naphthyridin-1(2H)-yl)-[1,2,4]triazolo[4,3-a]quinazoline] |
| 4.69 | 5.56 | CC(C)(C)C#Cc1cc(N(CC(F)F)c2nc3nncn3c3ccc(F)cc23)ccn1 [Example 101, N-(2,2-difluoroethyl)-N-(2-(3,3-dimethylbut-1-yn-1-yl)pyridin-4-yl)-7-fluoro-[1,2,4]triazolo[4,3-a]quinazolin-5-amine] |
| 2.81 | 3.8 | CC1(C#Cc2cc(N(CC(F)F)c3nc4nncn4c4ccc(F)cc34)ccn2)CC1 [Example 102, N-(2,2-difluoroethyl)-7-fluoro-N-(2-((1-methylcyclopropyl)ethynyl)pyridin-4-yl)-[1,2,4]triazolo[4,3-a]quinazolin-5-amine] |
| 2.27 | 5.13 | Fc1ccc2c(c1)c(N(CC(F)F)c1ccnc(C#CC3(C(F)(F)F)CC3)c1)nc1nncn12 [Example 103, N-(2,2-difluoroethyl)-7-fluoro-N-(2-((1-(trifluoromethyl)cyclopropyl)ethynyl)pyridin-4-yl)-[1,2,4]triazolo[4,3-a]quinazolin-5-amine] |
| 8.95 | 8.06 | Cc1nnc2nc(N(CC(F)F)c3cc(F)cc(C#CC(C)(C)O)c3)c3c(F)cc(Cl)cc3n12 [Example 104, 4-(3-((8-chloro-6-fluoro-1-methyl-[1,2,4]triazolo[4,3-a]quinazolin-5-yl)(2,2-difluoroethyl)amino)-5-fluorophenyl)-2-methylbut-3-yn-2-ol] |
| 27.1 | 30.6 | Cc1cc(F)cc2c(N(CC(F)F)c3cc(F)cc(C#CC(C)(C)O)c3)nc3nncn3c12 [Example 105] |
| 2.53 | 118 | Cc1cc(F)cc2c(N(CC(F)F)c3cc(F)cc(C#CC4(C(F)(F)F)CC4)c3)nc3nncn3c12 [Example 106] |
| 3.21 | 39.9 | Cc1cccc2c(N3CCOCc4c(C#CC5(C(C)(F)F)CC5)cccc43)nc3nncn3c12 [Example 107] |
| 2.84 | 4.69 | Cc1nnc2nc(N3CCOCc4c(C#CC5CC5)cccc43)c3cc(C#N)ccc3n12 [Example 108] |
| 1.67 | 7.3 | Cc1nnc2nc(N3CCOCc4c(C#CC5(C)CC5)cccc43)c3cc(C#N)ccc3n12 [Example 109] |
| 9.8 | 2.76 | CC(C)(O)C#Cc1cccc2c1CCCCN2c1nc2nncn2c2c(F)ccc(F)c12 [Example 110] |
| 45.8 | 6.5 | CC(C)(O)C#Cc1cccc2c1COCCN2c1nc2nncn2c2c(F)ccc(F)c12 [Example 111] |
| 0.716 | 3.48 | Fc1ccc(F)c2c1c(N1CCOCc3c(C#CC4(C(F)(F)F)CC4)cccc31)nc1nncn12 [Example 112] |
| 0.9 | 1.44 | CC1(C#Cc2cccc3c2COCCN3c2nc3nncn3c3c(F)ccc(F)c23)CC1 [Example 113] |
| 12.5 | 6.76 | CC(C)(O)C#Cc1cc(F)cc2c1CCCN2c1nc2nncn2c2c(F)cc(F)cc12 [Example 114] |
| 2.37 | 32.8 | Cc1nnc2nc(N3CCCOc4c(C#CC5(C(C)(F)F)CC5)cccc43)c3c(F)c(F)ccc3n12 [Example 115] |
| 1.07 | 5.19 | Cc1nnc2nc(N3CCCOc4c(C#CC5CC5)cccc43)c3c(F)c(F)ccc3n12 [Example 116] |
| 1.32 | 14.8 | CC1(C#Cc2cccc3c2CCCN3c2nc3nncn3c3c(F)ccc(F)c23)CC1 [Example 117] |
| 5.81 | 4.89 | Fc1cc(F)c2c(c1)c(N1CCCc3c(C#CC4(C(F)(F)F)CC4)cccc31)nc1nncn12 [Example 118] |

| EC50 [1] [nM] | IC50 (human DGKα) [nM] | SMILES |
| --- | --- | --- |
| 2.86 | 2.13 | Fc1cc(F)c2c(c1)c(N1CCCc3c(C#CC4(C(F)F)CC4)cccc31)nc1nncn12 [Example 119] |
| 12.3 | 4.99 | CC(C)(O)C#Cc1cccc2c1CCCN2c1nc2nncn2c2c(F)cc(F)cc12 [Example 120] |
| 4.95 | 22.8 | Fc1cccc2c1c(N1CCCOc3c(C#CC4(C(F)(F)F)CC4)cccc31)nc1nncn12 [Example 121] |
| 2.63 | 5.27 | Cc1nnc2nc(N3CCCOc4c(C#CC5(C)CC5)cccc43)c3c(F)c(F)ccc3n12 [Example 122] |
| 0.533 | 31.5 | CC(C)(C#Cc1cccc2c1OCCCN2c1nc2nncn2c2cccc(F)c12)C(F)(F)F [Example 123] |
| 0.781 | 16.8 | CC(C)(C#Cc1cccc2c1COCCN2c1nc2nnc(N)n2c2cccc(F)c12)C(F)(F)F [Example 124, 6-fluoro-5-(6-(4,4,4-trifluoro-3,3-dimethylbut-1-yn-1-yl)-2,3-dihydrobenzo[e][1,4]oxazepin-1(5H)-yl)-[1,2,4]triazolo[4,3-a]quinazolin-1-amine] |
| 2.9 | 16.4 | Cc1nnc2nc(N3CCCc4c(C#CC(C)(C)C#N)cccc43)c3c(Cl)cccc3n12 [Example 125, 4-(1-(6-chloro-1-methyl-[1,2,4]triazolo[4,3-a]quinazolin-5-yl)-1,2,3,4-tetrahydroquinolin-5-yl)-2,2-dimethylbut-3-ynenitrile] |
| 1.16 | 17.2 | Cc1nnc2nc(N3CCCc4c(C#CC5(C(F)F)CC5)cccc43)c3c(Cl)cccc3n12 [Example 126, 6-chloro-5-(5-((1-(difluoromethyl)cyclopropyl)ethynyl)-3,4-dihydroquinolin-1(2H)-yl)-1-methyl-[1,2,4]triazolo[4,3-a]quinazoline] |
| 2.02 | 8.42 | CC1(C#Cc2cccc3c2COCCN3c2nc3nnc(N)n3c3cccc(F)c23)CC1 [Example 127] |
| 7.48 | 20.8 | Cc1nnc2nc(N(CC(F)F)c3cc(F)cc(-c4ccc(C(C)(C)O)cc4)c3)c3c(F)cccc3n12 [Example 128, 2-(3′-((2,2-difluoroethyl)(6-fluoro-1-methyl-[1,2,4]triazolo[4,3-a]quinazolin-5-yl)amino)-5′-fluoro-[1,1′-biphenyl]-4-yl)propan-2-ol] |
| 1.22 | 7.55 | Cc1nnc2nc(N3CCCc4c(C#CC5CCCCO5)cccc43)c3c(F)cccc3n12 (stereo not shown) [Example 129, 6-fluoro-1-methyl-5-(5-((tetrahydro-2H-pyran-2-yl)ethynyl)-3,4-dihydroquinolin-1(2H)-yl)-[1,2,4]triazolo[4,3-a]quinazoline] |
| 1.98 | 4.19 | Cc1nnc2nc(N3CCCc4c(C#CC5CCCCO5)cccc43)c3cc(F)ccc3n12 (stereo not shown) [Example 130, 7-fluoro-1-methyl-5-(5-((tetrahydro-2H-pyran-2-yl)ethynyl)-3,4-dihydroquinolin-1(2H)-yl)-[1,2,4]triazolo[4,3-a]quinazoline] |
| 2.14 | 8.68 | Cc1nnc2nc(N3CCCc4c(C#CC5CC5)cccc43)c3c(F)c(F)ccc3n12 [Example 131, 5-[5-(2-cyclopropylethynyl)-3,4-dihydro-2H-quinolin-1-yl]-6,7-difluoro-1-methyl-[1,2,4]triazolo[4,3-a]quinazoline] |
| 6.64 | 3.1 | Cc1nnc2nc(N3CCOCc4c3ccnc4C#CC3(C)CC3)c3cc(F)ccc3n12 [Example 132, 1-(7-fluoro-1-methyl-[1,2,4]triazolo[4,3-a]quinazolin-5-yl)-6-((1-methylcyclopropyl)ethynyl)-1,2,3,5-tetrahydropyrido[4,3-e][1,4]oxazepine] |
| 5.69 | 15.1 | Cc1nnc2nc(N3CCOCc4c3ccnc4C#CC3(C(C)(F)F)CC3)c3cc(F)ccc3n12 [Example 133, 6-((1-(1,1-difluoroethyl)cyclopropyl)ethynyl)-1-(7-fluoro-1-methyl-[1,2,4]triazolo[4,3-a]quinazolin-5-yl)-1,2,3,5-tetrahydropyrido[4,3-e][1,4]oxazepine] |
| 8.21 | 9.88 | Cc1nnc2nc(N3CCOCc4c3ccnc4C#CC(C)(C)C(F)(F)F)c3cc(F)ccc3n12 [Example 134, 1-(7-fluoro-1-methyl-[1,2,4]triazolo[4,3-a]quinazolin-5-yl)-6-(4,4,4-trifluoro-3,3-dimethylbut-1-yn-1-yl)-1,2,3,5-tetrahydropyrido[4,3-e][1,4]oxazepane] |
| 6.06 | 5.49 | Cc1nnc2nc(N3CCOCc4c3ccnc4C#CC3(C(F)F)CC3)c3c(F)cccc3n12 [Example 135, 6-((1-(difluoromethyl)cyclopropyl)ethynyl)-1-(6-fluoro-1-methyl-[1,2,4]triazolo[4,3-a]quinazolin-5-yl)-1,2,3,5-tetrahydropyrido[4,3-e][1,4]oxazepine] |
| 13.9 | 11.1 | Cc1nnc2nc(N3CCOCc4c3ccnc4C#CC(C)(C)C(F)F)c3c(F)cccc3n12 [Example 136, 6-(4,4-difluoro-3,3-dimethylbut-1-yn-1-yl)-1-(6-fluoro-1-methyl-[1,2,4]triazolo[4,3-a]quinazolin-5-yl)-1,2,3,5-tetrahydropyrido[4,3-e][1,4]oxazepine] |
| 106 | 17.7 | Cc1nnc2nc(N3CCOCc4c3ccnc4C#CC(C)(C)NC(=O)C3(C(F)(F)F)CC3)c3c(F)cccc3n12 [Example 137, N-(4-(1-(6-fluoro-1-methyl-[1,2,4]triazolo[4,3-a]quinazolin-5-yl)-1,2,3,5-tetrahydropyrido[4,3-e][1,4]oxazepin-6-yl)-2-methylbut-3-yn-2-yl)-1-(trifluoromethyl)cyclopropane-1-carboxamide] |
